Reference: patent US20230121721A1, “MONOACYLGLYCEROL LIPASE INHIBITORS” (STICHTING HET NEDERLANDS KANKER INSTITUUT - ANTONI VAN …, priority 2020, published 2023)

target: T1, hMAGL (MAGL-overexpressing membrane preparations from transiently transfected HEK293T cells) (Homo sapiens, UniProt Q99685); assay: MAGL activity assay (2-AG hydrolysis, glycerol coupled to Amplifu Red fluorescence); type: biochemical; conditions: hMAGL-overexpressing HEK293T membranes, 25 μM 2-AG substrate, 20 min. inhibitor incubation
T1 construct: expressed in transfected cells; host or cells: HEK293T (transient transfection), membrane preparations
T1 sequence (Q99685 1-303): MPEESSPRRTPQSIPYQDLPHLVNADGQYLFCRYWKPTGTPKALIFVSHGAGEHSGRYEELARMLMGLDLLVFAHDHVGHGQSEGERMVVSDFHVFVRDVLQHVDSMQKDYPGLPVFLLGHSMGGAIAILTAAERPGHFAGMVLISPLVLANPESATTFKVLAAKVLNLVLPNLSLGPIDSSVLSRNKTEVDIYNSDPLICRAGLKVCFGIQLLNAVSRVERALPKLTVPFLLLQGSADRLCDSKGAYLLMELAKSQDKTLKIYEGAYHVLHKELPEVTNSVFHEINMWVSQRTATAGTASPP
Excerpt: The MAGL activity assay is based on the production of glycerol from 2-arachidonoylglycerol (2-AG) hydrolysis by MAGL-overexpressing membrane preparations from transiently transfected HEK293T cells, as previously reported in van der Wel T et al., “A natural substrate-based fluorescence assay for inhibitor screening on diacylglycerol lipase”, J Lipid Res., 2015, 56(4), 927-35. The produced glycerol is coupled to the oxidation of commercially available Amplifu™ Red (Sigma-Aldrich Chemie N.V., Zwijndrecht, Netherlands) via a multi-enzyme cascade, resulting in a fluorescent signal from the dye resorufin.
Standard assays were performed in HEMNB buffer (50 mM HEPES pH 7.4, 1 mM EDTA, 5 mM MgCl2, 100 mM NaCl, 0.5% (w/v) BSA) in black, flat bottom 96-wells plates. Final protein concentration of membrane preparations from overexpressing hMAGL HEK293T cells was 1.5 μg/mL (0.3 μg per well). Inhibitors were added from 40× concentrated DMSO stocks. […] Final assay concentrations: 0.2 U/mL GK, GPO and HRP, 0.125 mM ATP, 10 μM Amplifu™ Red, 25 μM 2-AG, 5% DMSO, 0.5% ACN in a total volume of 200 μL.
For IC50 determination, the MAGL-overexpressing membranes were incubated with different inhibitor concentrations. Slopes of corrected fluorescence in time were determined in the linear interval of t=10 to t=35 min and then scaled to the corrected positive control of hMAGL-overexpressing membranes treated with vehicle (DMSO) as a 100% activity reference point. The data was exported to GraphPad Prism 5.0 and analysed in a non-linear dose-response analysis with variable slope.

Compound | IC50
CCOC(=O)C[S+]([O-])c1ccc(C(=O)N2CCN(c3cccc(F)c3)CC2)cc1[N+](=O)[O-] (stereo not drawn) [Example 9, Ethyl 2-((4-(4-(3-fluorophenyl)piperazine-1-carbonyl)-2-nitrophenyl)sulfinyl)acetate] | 631 nM
C[C@H]1[C@H](C)N(c2cccc(Cl)c2)CCN1C(=O)c1ccc([S+]([O-])CC(=O)c2ccc(C(F)(F)F)nc2)c(Cl)c1 (mixture of isomers) [Example 90, (±) 2-((2-Chloro-4-(4-(3-chlorophenyl)-trans-2,3-dimethylpiperazine-1-carbonyl)phenyl)sulfinyl)-1-(6-(trifluoromethyl)pyridin-3-yl)ethan-1-one] | 813 nM
C[C@H]1[C@H](C)N(c2cccc(Cl)c2)CCN1C(=O)c1ccc([S+]([O-])CC(=O)c2cccc(F)c2)c(Cl)c1 (mixture of isomers) [Example 87, (±) 2-((2-Chloro-4-(4-(3-chlorophenyl)-trans-2,3-dimethylpiperazine-1-carbonyl)phenyl)sulfinyl)-1-(3-fluorophenyl)ethan-1-one] | > 10000 nM
C[C@H]1[C@H](C)N(c2cccc(Cl)c2)CCN1C(=O)c1ccc([S+]([O-])CC(=O)c2cccnc2)c(Cl)c1 (mixture of isomers) [Example 85, (±) 2-((2-Chloro-4-(4-(3-chlorophenyl)-trans-2,3-dimethylpiperazine-1-carbonyl)phenyl)sulfinyl)-1-(pyridin-3-yl)ethan-1-one] | 9770 nM
CCC(F)(F)C(=O)C[S+]([O-])c1ccc(C(=O)N2CCN(c3cccc(Cl)n3)[C@@H](C)[C@@H]2C)cc1Cl (mixture of isomers) [Example 82, (±) 1-((2-Chloro-4-(4-(6-chloropyridin-2-yl)-trans-2,3-dimethylpiperazine-1-carbonyl)phenyl)sulfinyl)-3,3-difluoropentan-2-one] | 0.123 nM
C[C@H]1[C@H](C)N(c2cccc(Cl)c2)CCN1C(=O)c1ccc([S+]([O-])CC(=O)c2ccc(F)c(F)c2)c(Cl)c1 (mixture of isomers) [Example 94, (±) 2-((2-Chloro-4-(4-(3-chlorophenyl)-trans-2,3-dimethylpiperazine-1-carbonyl)phenyl)sulfinyl)-1-(3,4-difluorophenyl)ethan-1-one] | 759 nM
C[C@H]1[C@H](C)N(c2cccc(Cl)c2)CCN1C(=O)c1ccc([S+]([O-])CC(=O)c2ccc(F)cc2)c(Cl)c1 (mixture of isomers) [Example 86, (±) 2-((2-Chloro-4-(4-(3-chlorophenyl)-trans-2,3-dimethylpiperazine-1-carbonyl)phenyl)sulfinyl)-1-(4-fluorophenyl)ethan-1-one] | 1910 nM
CCOC(=O)C[S+]([O-])c1ccc(C(=O)N2CCN(c3ccc(Cl)c(Cl)c3)CC2)cc1[N+](=O)[O-] (stereo not drawn) [Example 22, Ethyl 2-((4-(4-(3,4-dichlorophenyl)piperazine-1-carbonyl)-2-nitrophenyl)sulfinyl)acetate] | 2570 nM
CCOC(=O)CS(=O)(=O)c1ccc(C(=O)N2CCN(c3cccc(C)c3)[C@@H](C)C2)cc1[N+](=O)[O-] [Example 6, Ethyl (S)-2-((4-(3-methyl-4-(m-tolyl)piperazine-1-carbonyl)-2-nitrophenyl)sulfonyl)acetate] | > 10000 nM
C[C@H]1[C@H](C)N(c2cccc(Cl)c2)CCN1C(=O)c1ccc([S+]([O-])CC(=O)C(F)(F)F)c(Cl)c1 (mixture of isomers) [Example 73, (±) 3-((2-Chloro-4-(4-(3-chlorophenyl)-trans-2,3-dimethylpiperazine-1-carbonyl)phenyl)sulfinyl)-1,1,1-trifluoropropan-2-one] | 7.41 nM
CCOC(=O)CS(=O)(=O)c1ccc(C(=O)N2CCN(c3cccc(Cl)c3)[C@H](C)[C@H]2C)cc1Cl (racemic) [Example 53, (±) Ethyl 2-((2-chloro-4-(4-(3-chlorophenyl)-trans-2,3-dimethylpiperazine-1-carbonyl)phenyl)sulfonyl)acetate] | 339 nM
C[C@H]1[C@H](C)N(c2cccc(Cl)c2)CCN1C(=O)c1ccc([S+]([O-])CC(=O)c2ccc(C(F)(F)F)cc2)c(Cl)c1 (mixture of isomers) [Example 103, (±) 2-((2-Chloro-4-(4-(3-chlorophenyl)-trans-2,3-dimethylpiperazine-1-carbonyl)phenyl)sulfinyl)-1-(4-(trifluoromethyl)phenyl)ethan-1-one] | 2950 nM
C[C@@H]1[C@@H](C)N(c2cccc(Cl)c2)CCN1C(=O)c1ccc([S+]([O-])CC(=O)OC2CCCCC2)c(Cl)c1 (mixture of isomers) [Example 60, (±) Cyclohexyl 2-((2-chloro-4-(4-(3-chlorophenyl)-trans-2,3-dimethylpiperazine-1-carbonyl)phenyl)sulfinyl)acetate] | 2.95 nM
C[C@H]1[C@H](C)N(c2cccc(Cl)c2)CCN1C(=O)c1ccc([S+]([O-])CC(=O)c2ccccc2)c(Cl)c1 (mixture of isomers) [Example 104, (±) 2-((2-Chloro-4-(4-(3-chlorophenyl)-trans-2,3-dimethylpiperazine-1-carbonyl)phenyl)sulfinyl)-1-phenylethan-1-one] | 2290 nM
C[C@H]1[C@H](C)N(c2cccc(Cl)c2)CCN1C(=O)c1ccc(SCC(=O)C(F)(F)F)c(Cl)c1 (racemic) [Example 72, (±) 3-((2-Chloro-4-(4-(3-chlorophenyl)-trans-2,3-dimethylpiperazine-1-carbonyl)phenyl)thio)-1,1,1-trifluoropropan-2-one] | 20.9 nM
CCOC(=O)C[S+]([O-])c1ccc(C(=O)N2CCN(c3cccc(-c4ccccc4)c3)CC2)cc1[N+](=O)[O-] (stereo not drawn) [Example 20, Ethyl 2-((4-(4-([1,1′-biphenyl]-3-yl)piperazine-1-carbonyl)-2-nitrophenyl)sulfinyl)acetate] | 1350 nM
CCOC(=O)C[S+]([O-])c1ccc(C(=O)N2CCN(c3c(Cl)cccc3Cl)CC2)cc1[N+](=O)[O-] (stereo not drawn) [Example 24, Ethyl 2-((4-(4-(2,6-dichlorophenyl)piperazine-1-carbonyl)-2-nitrophenyl)sulfinyl)acetate] | 1820 nM
C[C@H]1[C@H](C)N(c2cccc(Cl)c2)CCN1C(=O)c1ccc([S+]([O-])CC(=O)c2ccc(F)c(C(F)(F)F)c2)c(Cl)c1 (mixture of isomers) [Example 92, (±) 2-((2-Chloro-4-(4-(3-chlorophenyl)-trans-2,3-dimethylpiperazine-1-carbonyl)phenyl)sulfinyl)-1-(4-fluoro-3-(trifluoromethyl)phenyl)ethan-1-one] | > 10000 nM
C[C@H]1[C@H](C)N(c2cccc(Cl)c2)CCN1C(=O)c1ccc([S+]([O-])CC(=O)c2ncco2)c(Cl)c1 (mixture of isomers) [Example 74, (±) 2-((2-Chloro-4-(4-(3-chlorophenyl)-trans-2,3-dimethylpiperazine-1-carbonyl)phenyl)sulfinyl)-1-(oxazol-2-yl)ethan-1-one] | 204 nM
CCOC(=O)C[S+]([O-])c1ccc(C(=O)N2CCN(c3cccc(F)c3)[C@@H](C)C2)cc1[N+](=O)[O-] (stereo partly drawn) [Example 25, Ethyl 2-((4-((S)-4-(3-fluorophenyl)-3-methylpiperazine-1-carbonyl)-2-nitrophenyl)sulfinyl)acetate] | 155 nM
C[C@@H]1[C@@H](C)N(c2cccc(Cl)c2)CCN1C(=O)c1ccc([S+]([O-])CC(=O)OC2CCC2)c(Cl)c1 (mixture of isomers) [Example 58, (±) Cyclobutyl 2-((2-chloro-4-(4-(3-chlorophenyl)-trans-2,3-dimethylpiperazine-1-carbonyl)phenyl)sulfinyl)acetate] | 4.17 nM
C[C@H]1[C@H](C)N(c2cccc(Cl)n2)CCN1C(=O)c1ccc([S+]([O-])CC(=O)C(C)(F)F)c(Cl)c1 (mixture of isomers) [Example 81, (±) 1-((2-chloro-4-(4-(6-chloropyridin-2-yl)-trans-2,3-dimethylpiperazine-1-carbonyl)phenyl)sulfinyl)-3,3-difluorobutan-2-one] | 0.851 nM
C[C@H]1[C@H](C)N(c2cccc(Cl)c2)CCN1C(=O)c1ccc([S+]([O-])CC(=O)c2ncccn2)c(Cl)c1 (mixture of isomers) [Example 102, (±) 2-((2-Chloro-4-(4-(3-chlorophenyl)-trans-2,3-dimethylpiperazine-1-carbonyl)phenyl)sulfinyl)-1-(pyrimidin-2-yl)ethan-1-one] | 28.2 nM
C[C@@H]1CN(C(=O)c2ccc([S+]([O-])CC(=O)OCCCO)c([N+](=O)[O-])c2)CCN1c1cccc(Cl)c1 (stereo partly drawn) [Example 41, 3-Hydroxypropyl 2-((4-((R)-4-(3-chlorophenyl)-3-methylpiperazine-1-carbonyl)-2-nitrophenyl)sulfinyl)acetate] | 34.7 nM
